Assays:
Test in all cases: relative viability (nuclei count vs DMSO), 5 days (fraction); higher = more cells survive
NCI-H460 = system: NCI-H460
Method in brief: (§1)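 For relative viability, nuclei counts in treated wells were divided by those in vehicle wells. Lung cancer cell lines had been pin-tool dosed in 1536-well plates the day after seeding and cultured for 5 days, then fixed and stained in one step (final 0.05% Triton X-100, 1% formaldehyde, 1 ug/ml Hoechst) and imaged at 4×. Doses were one drug alone or a fixed anchor-drug dose plus five library-drug doses (not always all listed) in √10 steps, and values are duplicate-plate medians.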

LOU-NH91 = system: LOU-NH91
Method in brief: as §1

NCI-H1563 = system: NCI-H1563
Method in brief: as §1

CAL-12T = system: CAL-12T
Method in brief: as §1

NCI-H2023 = system: NCI-H2023
Method in brief: as §1

NCI-H2085 = system: NCI-H2085
Method in brief: as §1

BEN = system: BEN
Method in brief: as §1

SK-LU-1 = system: SK-LU-1
Method in brief: as §1

NCI-H1650 = system: NCI-H1650
Method in brief: as §1

COR-L23 = system: COR-L23
Method in brief: as §1

NCI-H1734 = system: NCI-H1734
Method in brief: as §1

NCI-H1437 = system: NCI-H1437
Method in brief: as §1

NCI-H1975 = system: NCI-H1975
Method in brief: as §1

NCI-H1793 = system: NCI-H1793
Method in brief: as §1

NCI-H1651 = system: NCI-H1651
Method in brief: as §1

NCI-H1355 = system: NCI-H1355
Method in brief: as §1

NCI-H838 = system: NCI-H838
Method in brief: as §1

HCC-366 = system: HCC-366
Method in brief: as §1

LU99A = system: LU99A
Method in brief: as §1

NCI-H358 = system: NCI-H358
Method in brief: as §1

O=c1cc(-c2cccc3c2Sc2ccccc2S3)oc(N2CCOCC2)c1 + CS(=O)(=O)CCNCc1ccc(-c2ccc3ncnc(Nc4ccc(OCc5cccc(F)c5)c(Cl)c4)c3c2)o1 [Lapatinib] (partner 2 µM)
relative viability (NCI-H460; first compound 0.08 µM): 1.13 | relative viability (NCI-H460; first compound 0.253 µM): 1.52 | relative viability (NCI-H460; first compound 0.8 µM): 1.22 | relative viability (NCI-H460; first compound 2.53 µM): 0.843 | relative viability (NCI-H460; first compound 8 µM): 1.19 | relative viability (LOU-NH91; first compound 0.08 µM): 0.707 | relative viability (LOU-NH91; first compound 0.253 µM): 0.803 | relative viability (LOU-NH91; first compound 0.8 µM): 0.554 | relative viability (LOU-NH91; first compound 2.53 µM): 0.751 | relative viability (LOU-NH91; first compound 8 µM): 0.732 | relative viability (NCI-H1563; first compound 0.08 µM): 0.872 | relative viability (NCI-H1563; first compound 0.253 µM): 0.978 | relative viability (NCI-H1563; first compound 0.8 µM): 0.9 | relative viability (NCI-H1563; first compound 2.53 µM): 0.934 | relative viability (NCI-H1563; first compound 8 µM): 0.891 | relative viability (CAL-12T; first compound 0.08 µM): 0.501 | relative viability (CAL-12T; first compound 0.253 µM): 0.646 | relative viability (CAL-12T; first compound 0.8 µM): 0.595 | relative viability (CAL-12T; first compound 2.53 µM): 0.551 | relative viability (CAL-12T; first compound 8 µM): 0.564 | relative viability (NCI-H2023; first compound 0.08 µM): 0.767 | relative viability (NCI-H2023; first compound 0.253 µM): 1.03 | relative viability (NCI-H2023; first compound 0.8 µM): 0.748 | relative viability (NCI-H2023; first compound 2.53 µM): 0.571 | relative viability (NCI-H2023; first compound 8 µM): 0.94 | relative viability (NCI-H2085; first compound 0.08 µM): 0.636 | relative viability (NCI-H2085; first compound 0.253 µM): 0.86 | relative viability (NCI-H2085; first compound 0.8 µM): 0.767 | relative viability (NCI-H2085; first compound 2.53 µM): 0.703 | relative viability (NCI-H2085; first compound 8 µM): 0.644 | relative viability (BEN; first compound 0.08 µM): 0.703 | relative viability (BEN; first compound 0.253 µM): 0.706 | relative viability (BEN; first compound 0.8 µM): 0.81 | relative viability (BEN; first compound 2.53 µM): 0.734 | relative viability (BEN; first compound 8 µM): 1.05 | relative viability (SK-LU-1; first compound 0.08 µM): 1.02 | relative viability (SK-LU-1; first compound 0.253 µM): 0.858 | relative viability (SK-LU-1; first compound 0.8 µM): 0.968 | relative viability (SK-LU-1; first compound 2.53 µM): 0.817 | relative viability (SK-LU-1; first compound 8 µM): 0.836 | relative viability (NCI-H1650; first compound 0.08 µM): 0.687 | relative viability (NCI-H1650; first compound 0.253 µM): 0.917 | relative viability (NCI-H1650; first compound 0.8 µM): 0.717 | relative viability (NCI-H1650; first compound 2.53 µM): 0.84 | relative viability (NCI-H1650; first compound 8 µM): 0.847 | relative viability (COR-L23; first compound 0.08 µM): 1.1 | relative viability (COR-L23; first compound 0.253 µM): 1.67 | relative viability (COR-L23; first compound 0.8 µM): 0.962 | relative viability (COR-L23; first compound 2.53 µM): 0.836 | relative viability (COR-L23; first compound 8 µM): 1.09 | relative viability (NCI-H1734; first compound 0.08 µM): 1.07 | relative viability (NCI-H1734; first compound 0.253 µM): 1.55 | relative viability (NCI-H1734; first compound 0.8 µM): 1.12 | relative viability (NCI-H1734; first compound 2.53 µM): 0.79 | relative viability (NCI-H1734; first compound 8 µM): 1.51 | relative viability (NCI-H1437; first compound 0.08 µM): 0.782 | relative viability (NCI-H1437; first compound 0.253 µM): 1.2 | relative viability (NCI-H1437; first compound 0.8 µM): 0.817 | relative viability (NCI-H1437; first compound 2.53 µM): 0.751 | relative viability (NCI-H1437; first compound 8 µM): 1 | relative viability (NCI-H1975; first compound 0.08 µM): 0.827 | relative viability (NCI-H1975; first compound 0.253 µM): 1.06 | relative viability (NCI-H1975; first compound 0.8 µM): 0.894 | relative viability (NCI-H1975; first compound 2.53 µM): 0.794 | relative viability (NCI-H1975; first compound 8 µM): 0.973 | relative viability (NCI-H1793; first compound 0.08 µM): 0.641 | relative viability (NCI-H1793; first compound 0.253 µM): 1.16 | relative viability (NCI-H1793; first compound 0.8 µM): 0.643 | relative viability (NCI-H1793; first compound 2.53 µM): 0.837 | relative viability (NCI-H1793; first compound 8 µM): 0.752 | relative viability (NCI-H1651; first compound 0.08 µM): 0.866 | relative viability (NCI-H1651; first compound 0.253 µM): 1.06 | relative viability (NCI-H1651; first compound 0.8 µM): 0.711 | relative viability (NCI-H1651; first compound 2.53 µM): 0.703 | relative viability (NCI-H1651; first compound 8 µM): 0.953 | relative viability (NCI-H1355; first compound 0.08 µM): 0.963 | relative viability (NCI-H1355; first compound 0.253 µM): 1.15 | relative viability (NCI-H1355; first compound 0.8 µM): 0.799 | relative viability (NCI-H1355; first compound 2.53 µM): 0.956 | relative viability (NCI-H1355; first compound 8 µM): 1.05 | relative viability (NCI-H838; first compound 0.08 µM): 0.973 | relative viability (NCI-H838; first compound 0.253 µM): 1.36 | relative viability (NCI-H838; first compound 0.8 µM): 0.844 | relative viability (NCI-H838; first compound 2.53 µM): 0.969 | relative viability (NCI-H838; first compound 8 µM): 0.953 | relative viability (HCC-366; first compound 0.08 µM): 1.12 | relative viability (HCC-366; first compound 0.253 µM): 1.71 | relative viability (HCC-366; first compound 0.8 µM): 1.12 | relative viability (HCC-366; first compound 2.53 µM): 0.995 | relative viability (HCC-366; first compound 8 µM): 1.56 | relative viability (LU99A; first compound 0.08 µM): 1.07 | relative viability (LU99A; first compound 0.253 µM): 0.954 | relative viability (LU99A; first compound 0.8 µM): 1.49 | relative viability (LU99A; first compound 2.53 µM): 1.03 | relative viability (LU99A; first compound 8 µM): 1.11 | relative viability (NCI-H358; first compound 0.08 µM): 0.407 | relative viability (NCI-H358; first compound 0.253 µM): 0.392 | relative viability (NCI-H358; first compound 0.8 µM): 0.42 | relative viability (NCI-H358; first compound 2.53 µM): 0.424 | relative viability (NCI-H358; first compound 8 µM): 0.467
